According to patent US12157730B2, “Heteroaryl derivative, method for producing same, and pharmaceutical composition comprising same as effective component” (VORONOI INC., priority 2019, dated 2024):

Target: T1, Ba/F3 cell EGFR Exon20 ins NPH (Homo sapiens, UniProt P00533, INS773NPH)
T1 construct: expressed in transfected cells; host or cells: Ba/F3
Assay: Ba/F3 cell proliferation suppression, EGFR Exon20 ins NPH
Assay type: cell-based
Details: GI50 class; Ba/F3 cell line with NPH inserted at Exon20 of EGFR; 72 hours
Method in brief: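 Seed 3000–5000 cells/well; after 24 h add compound (12 conc., 0.3 nM–50 um final); incubate 72 h; add CellTiter-Glo, 10 min room temperature; read luminescence; GI50 from % growth vs control, triplicate.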

| SMILES | Ba/F3 (NPH) Activity |
| --- | --- |
| C=CC(=O)Nc1cc(Nc2cc(N3OCC[C@@H]3c3ccc(Cl)cc3F)ncn2)c(OC)cc1N1CC[C@@H](N(C)C)C1 [compound 456, N-(5-((6-((R)-3-(4-chloro-2-fluorophenyl)isoxazolidine-2-yl)pyrimidine-4-yl)amino)-2-((R)-3-(dimethylamino)pyrolidine-1-yl)-4-methoxyphenyl) acrylamide] | A (GI50 < 50 nM) |
| COc1cc(OCCC(C)(C)OC)c(NC(=O)/C=C/CN(C)C)cc1Nc1cc(N2OCC[C@@H]2c2cc(F)cc(F)c2)ncn1 [compound 496, N-(5-((6-((R)-3-(3,5-difluorophenyl)isoxazolidine-2-yl)pyrimidine-4-yl)amino)-4-methoxy-2-(3-methoxy-3-methylbutoxy)phenyl)-(E)-4-(dimethylamino) but-2-enamide] | C (500 nM ≤ GI50 < 5000 nM) |
| C=CC(=O)Nc1cc(Nc2cc(N3OCC[C@@H]3Cc3cc(F)cc(F)c3)ncn2)c(OC)cc1N1CCC(N2CCN(C3CC3)CC2)CC1 [compound 1033, N-(2-(4-(4-cyclopropylpiperazine-1-yl)piperidine-1-yl)-5-((6-((S)-3-(3,5-difluorobenzyl)isoxazolidine-2-yl)pyrimidine-4-yl)amino)-4-methoxyphenyl) acrylamide] | A (GI50 < 50 nM) |
| C=CC(=O)Nc1cc(Nc2cc(N3OCC[C@@H]3c3cccc(Cl)c3F)ncn2)c(OC)cc1N1CCC(N2C[C@H]3C[C@@H]2CO3)CC1 [Example 258, N-(2-(4-((1R,4R)-2-oxa-5-azabicyclo [2.2.1]heptane-5-yl)piperidine-1-yl)-5-((6-((R)-3-(3-chloro-2-fluorophenyl)isoxazolidine-2-yl)pyrimidine-4-yl)amino)-4-methoxyphenyl) acrylamide] | A (GI50 < 50 nM) |
| C=CC(=O)Nc1cc(Nc2cc(N3OCC[C@@H]3c3cc(F)cc(F)c3)ncn2)c(OC)cc1N1CCC(N2CCN(C3CCCC3)CC2)CC1 [Example 98, N-(2-(4-(4-cyclopentylpiperazine-1-yl)piperidine-1-yl)-5-((6-((R)-3-(3,5-difluorophenyl)isoxazolidine-2-yl)pyrimidine-4-yl)amino)-4-methoxyphenyl) acrylamide] | A (GI50 < 50 nM) |
| C=CC(=O)Nc1cc(Nc2cc(N3OCC[C@@H]3c3ccc(F)c(Cl)c3)ncn2)c(OC)cc1N1CCC(N2CCN(C)[C@@H](C)C2)CC1 [compound 900, N-(5-((6-((R)-3-(3-chloro-4-fluorophenyl)isoxazolidine-2-yl)pyrimidine-4-yl)amino)-2-(4-((S)-3,4-dimethylpiperazine-1-yl)piperidine-1-yl)-4-methoxyphenyl) acrylamide] | A (GI50 < 50 nM) |
| C=CC(=O)Nc1cc(Nc2cc(N3OCC[C@@H]3Cc3ccccc3)ncn2)c(OC)cc1N1CC2CC1CN2C (stereo partly drawn) [compound 969, N-(5-((6-((S)-3-benzylisoxazolidine-2-yl)pyrimidine-4-yl)amino)-4-methoxy-2-(5-methyl-2,5-diazabicyclo[2.2.1]heptane-2-yl)phenyl) acrylamide] | A (GI50 < 50 nM) |
| C=CC(=O)Nc1cc(Nc2cc(N3OCC[C@@H]3c3cccc(Cl)c3F)ncn2)c(OC)cc1N1CCC(N2CCN(C)CC2)CC1 [compound 747, N-(5-((6-((R)-3-(3-chloro-2-fluorophenyl)isoxazolidine-2-yl)pyrimidine-4-yl)amino)-4-methoxy-2-(4-(4-methylpiperazine-1-yl)piperidine-1-yl)phenyl) acrylamide] | A (GI50 < 50 nM) |
| C=CC(=O)Nc1cc(Nc2cc(N3OCC[C@@H]3c3cc(F)ccc3F)ncn2)c(OC)cc1N1CCC(N2CCN(C(C)=O)CC2)CC1 [compound 815, N-(2-(4-(4-acetylpiperazine-1-yl)piperidine-1-yl)-5-((6-((R)-3-(2,5-difluorophenyl)isoxazolidine-2-yl)pyrimidine-4-yl)amino)-4-methoxyphenyl) acrylamide] | A (GI50 < 50 nM) |
| C=CC(=O)Nc1cc(Nc2cc(N3OCC[C@@H]3c3cccc(F)c3F)ncn2)c(OC)cc1N(C)CCN(C)C [compound 924, N-(5-((6-((R)-3-(2,3-difluorophenyl)isoxazolidine-2-yl)pyrimidine-4-yl)amino)-2-((2-(dimethylamino)ethyl)(methyl)amino)-4-methoxyphenyl) acrylamide] | A (GI50 < 50 nM) |
| C=CC(=O)Nc1cc(Nc2cc(N3OCC[C@@H]3c3cccc(C(F)(F)F)c3)ncn2)c(OC)cc1N1CCC(N2CCOCC2)CC1 [compound 504, N-(4-methoxy-2-(4-morpholinopiperidine-1-yl)-5-((6-((R)-3-(3-(trifluoromethyl)phenyl)isoxazolidine-2-yl)pyrimidine-4-yl)amino)phenyl)acrylamide] | A (GI50 < 50 nM) |
| C=CC(=O)Nc1cc(Nc2cc(N3OCC[C@@H]3c3cccc(C#N)c3)ncn2)c(OC)cc1N1CCC(N2CCN(CC)CC2)CC1 [compound 399, N-(5-((6-((R)-3-(3-cyanophenyl)isoxazolidine-2-yl)pyrimidine-4-yl)amino)-2-(4-(4-ethylpiperazine-1-yl)piperidine-1-yl)-4-methoxyphenyl) acrylamide] | B (50 nM ≤ GI50 < 500 nM) |
| C=CC(=O)Nc1cc(Nc2cc(N3OCC[C@@H]3c3cc(F)cc(Cl)c3)ncn2)c(OC)cc1N1CCC(N2CCN(C3CC3)C[C@@H]2C)CC1 [Example 160, N-(5-((6-((R)-3-(3-chloro-5-fluorophenyl)isoxazolidine-2-yl)pyrimidine-4-yl)amino)-2-(4-((S)-4-cyclopropyl-2-methylpiperazine-1-yl)piperidine-1-yl)-4-methoxyphenyl) acrylamide] | A (GI50 < 50 nM) |
| C=CC(=O)Nc1cc(Nc2cc(N3OCC[C@@H]3c3cccc(F)c3Cl)ncn2)c(OC)cc1N1CCC(N2CCN(C3CC3)C[C@H]2C)CC1 [Example 143, N-(5-((6-((R)-3-(2-chloro-3-fluorophenyl)isoxazolidine-2-yl)pyrimidine-4-yl)amino)-2-(4-((R)-4-cyclopropyl-2-methylpiperazine-1-yl)piperidine-1-yl)-4-methoxyphenyl) acrylamide] | A (GI50 < 50 nM) |
| C=CC(=O)Nc1cc(Nc2cc(N3OCC[C@@H]3c3ccc(F)cc3F)ncn2)c(OC)cc1N1CCC(N2CCN(C3CCOCC3)CC2)CC1 [Example 207, N-(5-((6-((R)-3-(2,4-difluorophenyl)isoxazolidine-2-yl)pyrimidine-4-yl)amino)-4-methoxy-2-(4-(4-(tetrahydro-2H-pyran-4-yl)piperazine-1-yl)piperidine-1-yl)phenyl)acrylamide] | A (GI50 < 50 nM) |
| C=CC(=O)Nc1cc(Nc2cc(N3OCC[C@@H]3c3cccc(C#N)c3)ncn2)c(OC)cc1N(C)CCN(C)C [compound 392, N-(5-((6-((R)-3-(3-cyanophenyl)isoxazolidine-2-yl)pyrimidine-4-yl)amino)-2-((2-(dimethylamino)ethyl)(methyl)amino)-4-methoxyphenyl) acrylamide] | A (GI50 < 50 nM) |
| C=CC(=O)Nc1cc(Nc2cc(N3OCC[C@@H]3c3cccc(Cl)c3Cl)ncn2)c(OC)cc1N1CCC(N2CCOCC2)CC1 [compound 521, N-(5-((6-((R)-3-(2,3-dichlorophenyl)isoxazolidine-2-yl)pyrimidine-4-yl)amino)-4-methoxy-2-(4-morpholinopiperidine-1-yl)phenyl)acrylamide] | A (GI50 < 50 nM) |
| C=CC(=O)Nc1cc(Nc2cc(N3OCC[C@@H]3c3cc(F)cc(F)c3)ncn2)c(OC)cc1OCCC(C)(C)OC [compound 495, N-(5-((6-((R)-3-(3,5-difluorophenyl)isoxazolidine-2-yl)pyrimidine-4-yl)amino)-4-methoxy-2-(3-methoxy-3-methylbutoxy)phenyl) acrylamide] | A (GI50 < 50 nM) |
| C=CC(=O)Nc1cc(Nc2cc(N3OCC[C@@H]3c3ccc(C)nc3)ncn2)c(OC)cc1N1CC[C@H](N(C)C)C1 [Example 222, N-(2-((S)-3-(dimethylamino)pyrolidine-1-yl)-4-methoxy-5-((6-((R)-3-(6-methylpyridine-3-yl)isoxazolidine-2-yl)pyrimidine-4-yl)amino)phenyl)acrylamide] | B (50 nM ≤ GI50 < 500 nM) |
| C=CC(=O)Nc1cc(Nc2cc(N3OCC[C@@H]3c3cccc(OC)c3)ncn2)c(OC)cc1N1CCC(N2CCN(C(C)C)CC2)CC1 [compound 780, N-(2-(4-(4-isopropylpiperazine-1-yl)piperidine-1-yl)-4-methoxy-5-((6-((R)-3-(3-methoxyphenyl)isoxazolidine-2-yl)pyrimidine-4-yl)amino)phenyl)acrylamide] | B (50 nM ≤ GI50 < 500 nM) |
| C=CC(=O)Nc1cc(Nc2cc(N3OCC[C@@H]3Cc3cccc(F)c3Cl)ncn2)c(OC)cc1N1CCC(N2CCN(C3CC3)[C@H](C)C2)CC1 [compound 1036, N-(5-((6-((S)-3-(2-chloro-3-fluorobenzyl)isoxazolidine-2-yl)pyrimidine-4-yl)amino)-2-(4-((R)-4-cyclopropyl-3-methylpiperazine-1-yl)piperidine-1-yl)-4-methoxyphenyl) acrylamide] | A (GI50 < 50 nM) |
| C=CC(=O)Nc1cc(Nc2cc(N3OCC[C@@H]3c3ccc(F)c(F)c3)ncn2)c(OC)cc1N1CCC(N2CCOCC2)CC1 [compound 503, N-(5-((6-((R)-3-(3,4-difluorophenyl)isoxazolidine-2-yl)pyrimidine-4-yl)amino)-4-methoxy-2-(4-morpholinopiperidine-1-yl)phenyl)acrylamide] | A (GI50 < 50 nM) |
